Measured values published in patent US11345666B2, “Phenyl and pyridinyl substituted imidazoles as modulators of RORγT” (Janssen Pharmaceutica NV, priority 2018, dated 2022).
Each block holds one molecule with its values, some of them ahead of it.

Key:
full-length human RORγt = full-length human RORγt (Homo sapiens (Human), UniProt P51449); test: RORγt (full-length human) reporter assay, conditions A or B; assay type: cell-based; details: for inhibition at 3 µM: 3 μM compound concentration (*); for IC50: HEK293T cells, read-out: RORγt (FL) Reporter Assay A or B, IC50; for inhibition at 6 µM: read-out: RORγt (FL) Reporter Assay A or B, % inhibition @ 6 μM, 6 μM compound concentration
full-length human RORγt, sequence (P51449 other isoform, or with tags, fused parts or gaps): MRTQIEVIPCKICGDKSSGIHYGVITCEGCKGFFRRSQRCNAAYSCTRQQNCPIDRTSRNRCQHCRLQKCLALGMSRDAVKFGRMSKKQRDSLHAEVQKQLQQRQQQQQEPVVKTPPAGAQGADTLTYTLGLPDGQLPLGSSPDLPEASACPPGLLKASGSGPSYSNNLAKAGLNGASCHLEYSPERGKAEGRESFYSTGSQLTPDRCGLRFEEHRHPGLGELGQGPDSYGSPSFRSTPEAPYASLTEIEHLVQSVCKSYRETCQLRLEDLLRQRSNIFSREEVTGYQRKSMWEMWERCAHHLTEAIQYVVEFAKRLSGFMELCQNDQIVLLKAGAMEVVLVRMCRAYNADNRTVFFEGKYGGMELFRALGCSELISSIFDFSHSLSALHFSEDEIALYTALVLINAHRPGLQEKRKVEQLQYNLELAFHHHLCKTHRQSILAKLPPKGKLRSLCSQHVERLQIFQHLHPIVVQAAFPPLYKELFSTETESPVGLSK
Source text: RORγt (Full-Length Human) Reporter Assay:
Cells used in this assay were transiently co-transfected with three different plasmids, one expressing the GAL4-DNA binding domain (DBD)-RORγt fusion protein under control of a CMV promoter (NH2-Gal4-DBD:RORC—COOH in pCMV-BD, Stratagene #211342), and two reporter plasmids—the firefly luciferase reporter under control of a GAL4 promoter (pFR-Luc 2×GAL4) and Renilla luciferase reporter under control of CMV promoter (pRL-CMV, Promega #E2261). […] HEK293T cells were plated at 35,000 per well in 96-well plate in medium of DMEM with 10% FBS. After 18-22 hours incubation, the transfection was carried out by using a PEI solution with 170.5 ng total DNA/well (50 ng pCMV-BD-ROR plus 20 ng of pFR-Luc reporter and 0.5 ng of pRL-CMV reporter plus 100 ng Carrier DNA (Clontech #630440) for each well). 4-6 hours after transfection, cells were treated with compounds for overnight in the medium with final concentration of FBS 1.3% and DMSO 0.1%. After overnight (16 to 20 hours) incubation, media were removed and cells were lysed with […] Glo Lysis Buffer (Promega) for 10-15 minutes followed by 10 minute incubation with 50 μL Dual Glo reagent (Promega) at room temperature. Firefly luciferase luminescence was measured using a BMG Pherastar plate reader. To each well, 50 μL Stop and Glo reagent was added and incubated for 10 minutes at room temperature. Renilla luminescence was measured using a BMG Pherastar plate reader. To calculate the effect of compounds on RORγt activity, firefly values were normalized against values of DMSO only and values of reference compound at saturating concentration, then further normalized against Renilla signals. IC50s were generated by plotting final Renilla normalized data against compound concentration and percent inhibition was calculated against DMSO control.
Cells used in this assay were transiently co-transfected with three different plasmids, one expressing the GAL4-DNA binding domain (DBD)-RORγt fusion protein under control of a CMV promoter (NH2-Gal4-DBD:RORC—COOH in pCMV-BD, Stratagene #211342), and two reporter plasmids—the firefly luciferase reporter under control of a GAL4 promoter (pFR-Luc 2×GAL4) and Renilla luciferase reporter under control of CMV promoter (pRL-CMV, Promega #E2261). […] HEK293T cells were plated at 8750 cells per well in 384-well plate in medium of DMEM with 10% FBS. After 18-22 hours incubation, the transfection was carried out by using a PEI solution with 42.6 ng total DNA/well (12.5 ng pCMV-BD-ROR plus 5 ng of pFR-Luc reporter and 0.125 ng of pRL-CMV reporter plus 25 ng Carrier DNA (Clontech #630440) for each well). 4-6 hours after transfection, cells were treated with compounds for overnight in the medium with final concentration of FBS 1.3% and DMSO 0.1%. After overnight (16 to 20 hours) incubation, media were removed and cells were lysed with 20 μL Glo Lysis Buffer (Promega) for 10-15 minutes followed by 10 minute incubation with 20 μL Dual Glo reagent (Promega) at room temperature. Firefly luciferase luminescence was measured using a BMG Pherastar plate reader. To each well, 20 μL Stop and Glo reagent was added and incubated for 10 minutes at room temperature. Renilla luminescence was measured using a BMG Pherastar plate reader. To calculate the effect of compounds on RORγt activity, firefly values were normalized against values of DMSO only and values of reference compound at saturating concentration, then further normalized against Renilla signals. IC50s were generated by plotting final Renilla normalized data against compound concentration and percent inhibition was calculated against DMSO control.

[1] = target: human RORγt ligand binding domain (RORγt LBD) (Homo sapiens (Human), UniProt P51449); test: RORγt ThermoFluor assay
human RORγt ligand binding domain (RORγt LBD), sequence (P51449 other isoform, or with tags, fused parts or gaps): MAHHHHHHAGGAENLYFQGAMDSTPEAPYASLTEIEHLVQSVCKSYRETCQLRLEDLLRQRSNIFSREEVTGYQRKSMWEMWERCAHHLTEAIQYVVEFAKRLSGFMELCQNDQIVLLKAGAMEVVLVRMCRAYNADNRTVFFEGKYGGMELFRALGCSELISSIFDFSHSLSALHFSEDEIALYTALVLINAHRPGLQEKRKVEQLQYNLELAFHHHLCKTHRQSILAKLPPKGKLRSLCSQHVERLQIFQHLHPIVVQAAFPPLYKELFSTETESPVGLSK
Source text: ThermoFluor® is a fluorescence based assay that estimates ligand binding affinities by measuring the effect of a ligand on protein thermal stability (Pantoliano, M. W., Petrella, E. C., Kwasnoski, J. D., Lobanov, V. S., Myslik, J., Graf, E., Carver, T., Asel, E., Springer, B. A., Lane, P., and Salemme, F. R. (2001) High-density miniaturized thermal shift assays as a general strategy for drug discovery. J Biomol Screen 6, 429-40, and Matulis, D., Kranz, J. K., Salemme, F. R., and Todd, M. J. (2005) Thermodynamic stability of carbonic anhydrase: measurements of binding affinity and stoichiometry using ThermoFluor. Biochemistry 44, 5258-66). This approach is applicable to a wide variety of systems, and rigorous in theoretical interpretation through quantitation of equilibrium binding constants (KD).
The shift in the melting point described as a ΔTm is proportional to the concentration and affinity of the ligand.
RORγt ThermoFluor® Assay Construct
Nucleotides 850-1635 (SEQ ID NO:2) coding for the wild type human RORγt ligand binding domain (RORγt LBD) were cloned into the pHIS 1 vector, a modified pET E. coli expression vector (Accelagen, San Diego), containing an in-frame N-terminal His-tag and a TurboTEV protease cleavage site (ENLYFQG, SEQ ID NO:3) upstream of the cloned insert sequence. The amino acid sequence for the RORγt construct used in the Thermofluor® assay is shown as SEQ ID NO:4.
ThermoFluor® experiments were carried out using instruments owned by Janssen Research and Development, L.L.C. through its acquisition of 3-Dimensional Pharmaceuticals, Inc. 1,8-ANS (Invitrogen) was used as a fluorescent dye. Protein and compound solutions are dispensed into black 384-well polypropylene PCR microplates (Abgene) and overlayed with silicone oil (1 μL, Fluka, type DC 200) to prevent evaporation.
Bar-coded assay plates are robotically loaded onto a thermostatically controlled PCR-type thermal block and then heated at a typical ramp-rate of 1° C./min for all experiments. Fluorescence was measured by continuous illumination with UV light (Hamamatsu LC6) supplied via fiber optic and filtered through a band-pass filter (380-400 nm; >6 OD cutoff). Fluorescence emission of the entire 384-well plate was detected by measuring light intensity using a CCD camera (Sensys, Roper Scientific) filtered to detect 500±25 nm, resulting in simultaneous and independent readings of all 384 wells. Images were collected at each temperature, and the sum of the pixel intensity in a given area of the assay plate was recorded versus temperature. Reference wells contained RORγt without compounds, and the assay conditions were as follows: • 0.065 mg/mL RORγt • 60 μM 1,8-ANS • 100 mM Hepes, pH 7.0 • 10 mM NaCl • 2.5 mM GSH • 0.002% Tween-20
Project compounds were arranged in a pre-dosed mother plate (Greiner Bio-one) wherein compounds are serially diluted in 100% DMSO by 1:2 from a high concentration of 10 mM over 12 columns within a series (column 12 is a reference well containing DMSO, no compound). The compounds were robotically dispensed directly into assay plates (1×=46 nL) using a Hummingbird capillary liquid handling instrument (Digilab). Following compound dispense, protein and dye in buffer was added to achieve the final assay volume of 3 μL, followed by 1 μL of silicone oil.
The binding affinity was estimated as described previously (Matulis, D., Kranz, J. K., Salemme, F. R., and Todd, M. J. (2005) Thermodynamic stability of carbonic anhydrase: measurements of binding affinity and stoichiometry using ThermoFluor®. Biochemistry 44, 5258-66) using the following thermodynamic parameters of protein unfolding: […]

[2] = read-out: RORγt (FL) Reporter Assay A or B, % inhibition

SMILES: CCc1nc(C(=O)NC[C@]2(O)CC[C@@H](S(C)(=O)=O)CC2)c(Cl)n1-c1ncc(C[C@@H](C)C(F)(F)F)cc1OC(F)F (single isomer, unassigned) [Example 79, 5-Chloro-1-(3-(difluoromethoxy)-5-((R*)-3,3,3-trifluoro-2-methylpropyl)pyridin-2-yl)-2-ethyl-N-(((1s,4S)-1-hydroxy-4-(methylsulfonyl)cyclohexyl)methyl)-1H-imidazole-4-carboxamide]
inhibition at 3 µM (full-length human RORγt; [2]): 84% | IC50 (full-length human RORγt): 220 nM | Kd [1]: 26 nM

SMILES: Cc1nc(C(=O)NC[C@]2(O)CC[C@@H](S(C)(=O)=O)CC2)cn1-c1ccc(CC(C)(C)C(F)(F)F)cc1OC(F)F [Example 132, 1-(2-(Difluoromethoxy)-4-(3,3,3-trifluoro-2,2-dimethylpropyl)phenyl)-N-(((1s,4s)-1-hydroxy-4-(methylsulfonyl)cyclohexyl)methyl)-2-methyl-1H-imidazole-4-carboxamide]
inhibition at 3 µM (full-length human RORγt; [2]): 87% | IC50 (full-length human RORγt): 800 nM | Kd [1]: 340 nM

SMILES: CCc1nc(C(=O)NC[C@H]2CC[C@H](S(C)(=O)=O)CC2)c(Cl)n1-c1ncc(CC(C)(C)C(F)(F)F)cc1C [Example 74, 5-Chloro-2-ethyl-1-(3-methyl-5-(3,3,3-trifluoro-2,2-dimethylpropyl)pyridin-2-yl)-N-(((1r,4r)-4-(methylsulfonyl)cyclohexyl)methyl)-1H-imidazole-4-carboxamide]
inhibition at 3 µM (full-length human RORγt; [2]): 116% | IC50 (full-length human RORγt): 92 nM | Kd [1]: 34 nM

SMILES: CCc1nc(C(=O)NC[C@H]2CC[C@H](S(C)(=O)=O)CC2)c(C)n1-c1ncc(CCCC(F)(F)F)cc1OC(F)F [Example 51, 1-(3-(Difluoromethoxy)-5-(4,4,4-trifluorobutyl)pyridin-2-yl)-2-ethyl-5-methyl-N-(((1r,4r)-4-(methylsulfonyl)cyclohexyl)methyl)-1H-imidazole-4-carboxamide]
IC50 (full-length human RORγt): 140 nM | inhibition at 6 µM (full-length human RORγt): 84% | Kd [1]: 120 nM

Continued by falling IC50 (full-length human RORγt), values first:

IC50 (full-length human RORγt): 2000 nM | inhibition at 6 µM (full-length human RORγt): 35% | Kd [1]: 2200 nM
SMILES: CCc1nc(C(=O)NC[C@]2(O)CC[C@@H](S(C)(=O)=O)CC2)cn1-c1c(F)cc(CC(C)C(F)(F)F)cc1F (stereo partly drawn) [Example 84, 1-(2,6-Difluoro-4-(3,3,3-trifluoro-2-methylpropyl)phenyl)-2-ethyl-N-(((1s,4s)-1-hydroxy-4-(methylsulfonyl)cyclohexyl)methyl)-1H-imidazole-4-carboxamide]

inhibition at 3 µM (full-length human RORγt; [2]): 86% | IC50 (full-length human RORγt): 190 nM | Kd [1]: 34 nM
SMILES: CCc1nc(C(=O)NC[C@]2(O)CC[C@@H](S(C)(=O)=O)C[C@H]2O)c(Cl)n1-c1ncc(CC(C)(C)C(F)(F)F)cc1OC(F)F (stereo in doubt) [Example 60, 5-Chloro-1-(3-(difluoromethoxy)-5-(3,3,3-trifluoro-2,2-dimethylpropyl)pyridin-2-yl)-N-(((1R*,2R*,4R*)-1,2-dihydroxy-4-(methylsulfonyl)cyclohexyl)methyl)-2-ethyl-1H-imidazole-4-carboxamide]

inhibition at 0.67 µM (full-length human RORγt; 0.67 μM compound concentration (****), read-out: RORγt (FL) Reporter Assay A or B, % inhibition): 67% | IC50 (full-length human RORγt): 46 nM | Kd [1]: 17 nM
SMILES: CCc1nc(C(=O)NC[C@]2(O)CC[C@@H](S(C)(=O)=O)CC2)c(Cl)n1-c1c(F)cc(CC(C)C(F)(F)F)cc1F (stereo partly drawn) [Example 88, 5-Chloro-1-(2,6-difluoro-4-(3,3,3-trifluoro-2-methylpropyl)phenyl)-2-ethyl-N-(((1s,4s)-1-hydroxy-4-(methylsulfonyl)cyclohexyl)methyl)-1H-imidazole-4-carboxamide]

inhibition at 2 µM (full-length human RORγt; 2 μM compound concentration (**), read-out: RORγt (FL) Reporter Assay A or B, % inhibition): 102% | IC50 (full-length human RORγt): 33 nM | Kd [1]: 2.5 nM
SMILES: [2H]C([2H])([2H])Oc1cc(CC(C)(C)C(F)(F)F)ccc1-n1c(CC)nc(C(=O)NC[C@]2(O)CC[C@@H](S(C)(=O)=O)CC2)c1C#N [Example 28, 5-Cyano-2-ethyl-N-(((1s,4s)-1-hydroxy-4-(methylsulfonyl)cyclohexyl)methyl)-1-(2-(methoxy-d3)-4-(3,3,3-trifluoro-2,2-dimethylpropyl)phenyl)-1H-imidazole-4-carboxamide]
